Data set [1] relates to Hep G2 (hepatocellular carcinoma). In words: MTT cell viability assay, Hep G2. It counts as cell-based. Particulars: Homo sapiens, HepG2, 24 h incubation, read-out: Cytotoxicity EC50, Hep G2. The source says: (§1) Human erythrocytes were purchased from the blood transfusion station Vladivostok. Human breast cancer cell lines MCF-7^HTB−22, and MDA-MB-231^CRM-HTB−26, liver hepatocellular carcinoma Hep G2^HB−8065, prostate adenocarcinoma PC-3^CRL−1435, cervical adenocarcinoma HeLa^CRM-CCL−2, and normal bronchial epithelial cells BEAS-2B ^CRL−3588 were received from ATCC (Manassas, VA, USA).
(§2) DMEM medium (Biolot, Russia) with 1% penicillin/streptomycin and 10% fetal bovine serum (FBS) (Biolot, Russia) was used for cultivation of Hep G2, PC-3, HeLa, and Beas-2b. MEM medium (Biolot, Russia) with 1% penicillin/streptomycin sulfate (Biolot, Russia) and FBS (Biolot, Russia) to a final concentration of 10% for MCF-7 and MDA-MB-231 cells.
(§3) The effect of the studied compounds on the viability of human cancer and normal cells was determined using the MTT (3-[4,5-dimethylthiazol-2-yl]-2,5 diphenyl tetrazolium bromide) assay. Briefly, 6 × 10^3 cells per well were seeded into 96-well plates and incubated for 24 h for adhesion, followed by incubation for 24 h with different concentrations of the substances. After incubation, the medium containing the test substances was replaced with 100 µL of fresh medium. Then, 10 μL of MTT (Sigma-Aldrich, Madison, WI, USA) reagent (5 mg/mL MTT in PBS) was added into the cells and the plates for additional 4 h. Thereafter, 100 µL of SDS-HCl solution (1 g SDS/10 mL dH2O/17 µL 6N HCl) was added to each well and incubated for 18 h. The absorbance of the converted formazan dye was measured using a Multiskan FC microplate photometer (Thermo Scientific, Waltham, MA, USA) at a wavelength of 570 nm. All experiments were performed in triplicate. Cytotoxic activity was expressed as a percentage of the cell viability.
A general note: Tetrazolium assays rely on reduction of a dye to a coloured formazan, in cell work by metabolically active cells.

In a further data set the test system is HeLa (cervical cancer). In words: MTT cell viability assay, HeLa. Type of data set: cell-based, human. Particulars: Homo sapiens, HeLa, 24 h, 24 h incubation, read-out: Cytotoxicity EC50, HeLa.
Excerpt: as §1, §2, §3

The subject of data set [2] is Candida albicans (KMM 455). As to the kind of experiment: Inhibition of biofilm formation (MTT). Type of data set: cell-based. The following applies: 24 h. The method, then:
(§4) Biofilm formation was performed according to the method described by Walencka et al., with minor modifications. The compounds were dissolved in dimethyl sulfoxide (DMSO) at a concentration of 10 mM and stored at −20 °C. Before the experiment, the solution of substances in DMSO was diluted with PBS at a concentration of 0.5–100.0 µM and added to the wells so that the concentration of DMSO in the culture medium was less than 1%. Biofilm formation was assessed in 96-well microplates in a liquid Mueller–Hinton nutrient medium. For S. aureus, E. coli, and C. albicans, a bacterial suspension of 10^6 CFU in 1 mL of medium was used, 90 μL was added to each well of the microplates and then incubated in a thermostatted shaker at 37 °C for 24 h. After incubation, the suspension of planktonic microorganisms was removed from the plate and washed with PBS. Next, 100 μL of PBS and 10 μL of MTT (3-(4,5-dimethylthiazol-2-yl)-2,5-diphenyltetrazolium bromide, MTT reagent, Sigma) stock solution (5 mg/mL) were added to the wells and incubated for 3 h at 37 °C. After incubation, all the solution was removed from the wells, 100 μL of DMSO was added, and the plate was shaken for 10 min until all formazan crystals had dissolved. The absorption was measured using a plate reader (Thermo Fisher Scientific, Waltham, MA, USA) at a wavelength of 570 nm. The activity of the substances was assessed by the change in optical density compared with that of the control. All experiments were performed in triplicate. Gentamicin (S. aureus and E. coli) and nitrofungin (C. albicans) were used as positive controls, and 1% DMSO in PBS was used as a negative control.

A short description of data set [3]: MTT cell viability assay, BEAS-2B normal cells. It counts as cell-based. Particulars: human, BEAS-2B normal bronchial epithelial cells, 24 h incubation, read-out: Cytotoxicity EC50, BEAS 2B.
Excerpt: as §1, §2, §3

Data set [4] relates to MDA-MB-231 (triple-negative breast cancer). As to the kind of experiment: MTT cell viability assay, MDA-MB-231. Particulars: Homo sapiens, MDA-MB-231, 24 h, 24 h incubation, read-out: Cytotoxicity EC50, MDA-MB-231 (TNBC). It counts as cell-based, human.
Excerpt: as §1, §2, §3

Data set [5] deals with Candida albicans (KMM 455). In words: Antimicrobial activity, inhibition of microbial growth (optical density). Type of data set: cell-based. The following applies: 18 h, OD 620 nm; for MIC50: read-out: Inhibition of Microbial Growth MIC50, C. albicans. The method, then: (§5) The antimicrobial activity of the compounds was determined against Gram-positive bacteria Staphylococcus aureus (ATCC 21027), Gram-negative bacteria Escherichia coli (VKPM B-7935), and yeast-like fungi Candida albicans (KMM 455) (all test strains were obtained from the Collection of Marine Microorganisms KMM PIBOC FEB RAS) in liquid nutrient media. Test cultures of S. aureus, E. coli, and C. albicans were grown in Petri dishes on a solid nutrient medium (Mueller–Hinton broth with the addition of agar—16.0 g/L) at 37 °C for 24 h. The antimicrobial activity of the compounds was determined by the change in optical density and expressed as the percentage of bacterial inhibition at different concentrations of substances added to the well of the microorganism suspension, compared to the control. The compounds were dissolved in dimethyl sulfoxide (DMSO) at a concentration of 10 mM and stored at −20 °C. Before the experiment, the solution of substances in DMSO was diluted with PBS at a concentration of 0.5–100.0 µM and added to the wells so that the concentration of DMSO in the culture medium was less than 1%. Antimicrobial activity was determined in 96-well microplates in a liquid Mueller–Hinton nutrient medium. For S. aureus, E. coli, and C. albicans, a bacterial suspension of 10^6 CFU in 1 mL of the media was used, 90 μL was added to each well of the microplates and then incubated in a thermostatted shaker at 37 °C for 18 h. Inhibition of microorganism growth was assessed by measuring the optical density at 620 nm using a microplate reader (Thermo Fisher Scientific, Waltham, MA, USA) after preliminary shaking of the plates for 10 min. All experiments were performed in triplicate. Gentamicin (S. aureus and E. coli) and nitrofungin (C. albicans) were used as positive controls, and 1% DMSO in PBS was used as a negative control.

Data set [6] has as its system Escherichia coli (VKPM B-7935). Described as above. It counts as cell-based. The following applies: 18 h, OD 620 nm, read-out: Inhibition of Microbial Growth MIC50, E. coli. On the procedure:
as §5

The subject of data set [7] is Staphylococcus aureus (ATCC 21027). The data set is described as above. Particulars: 18 h, OD 620 nm, read-out: Inhibition of Microbial Growth MIC50, S. aureus. It counts as cell-based. On the procedure:
as §5

In the next data set the test system is HeLa cells. In words: Colony formation (clonogenic) assay. The following applies: Homo sapiens, 336 h, 14 days. Type of data set: cell-based. On the procedure:
The effect of the test compounds on HeLa cell proliferation was analyzed using a clonogenic assay. Briefly, HeLa cells were cultured in 6-well plates at a density of 1 × 10^2 cells per well, and compounds were added at concentrations of 5 or 10 μM. Untreated culture medium was used as a control. […] Before fixation and staining, the medium was removed and the cells were washed twice with PBS. The colonies were then fixed with methanol for 25 min and stained with 0.5% crystal violet for 25 min at room temperature. The plates were then washed with water and air-dried.

The test system of a further data set is Human erythrocytes. In words: Hemolytic activity (destruction of erythrocyte membranes). Type of data set: cell-based.
Excerpt: as §1

The subject of data set [8] is Escherichia coli (VKPM B-7935). As to the kind of experiment: Inhibition of biofilm formation (MTT). It counts as cell-based. Particulars: 24 h. On the procedure: as §4
Setting [9] is: Staphylococcus aureus, ATCC21027.

≈ marks a conversion by molar mass, not a printed value. Where a name gives a salt, the structure may show the parent alone. Read-outs that look alike come from different tables or passages of the source.

With `CC(=O)OC[C@H]1O[C@@H](SSc2sc(N)nc2-c2ccc(Cl)cc2)[C@H](OC(C)=O)[C@@H](OC(C)=O)[C@@H]1OC(C)=O` [Compound 4d, 5-[(2,3,4,6-Tetra-O-acetyl-β-D-glucopyranosyl)disulfanyl]-2-amino-4-(4-chlorophenyl)thiazole], the EC50 is greater than 25 µM in data set [1], greater than 25 µM with HeLa (cervical cancer) and 22.9 µM in [4]. Also, the “Inhibition of Biofilm Formation MIC50, C. albicans” value in [2] turned out to be 7.03 µM. Further, the EC50 at 24 h in data set [3] stood at 14.1 µM. For the same compound, the MIC50 was determined as 6.9 ± 0.9 µM (≈ 4.18 µg/mL) in [5] (Candida albicans, KMM455); 16.1 ± 1.7 µM (≈ 9.74 µg/mL) in data set [6] (Escherichia coli); 19.2 ± 2 µM (≈ 11.6 µg/mL) in data set [7] (setting [9]).
In the case of `COc1ccc(-c2nc(N)sc2SS[C@@H]2OC[C@@H](OC(C)=O)[C@H](OC(C)=O)[C@H]2OC(C)=O)cc1` [Compound 4f, 5-[(2,3,4-Tri-O-acetyl-β-D-xylopyranosyl)disulfanyl]-2-amino-4-(4-methoxyphenyl)thiazole], the EC50 in [1] was 22.6 µM; in the data set with HeLa (cervical cancer), 20.4 µM; in data set [4] it was 22.9 µM. For the same compound, in data set [3], the EC50 at 24 h turned out to be 23.5 µM. For the same compound, the inhibition at 5 µM in the data set on HeLa cells (5 µM, read-out: Colony growth inhibition) is roughly 16%. Testing at 10 µM in the data set on HeLa cells (10 µM) gave an inhibition of 78%. Besides, the MIC50 was found to be 34.1 ± 2.1 µM (≈ 18 µg/mL) in data set [5] (Candida albicans, KMM455); 39.5 ± 4 µM (≈ 20.9 µg/mL) in data set [6] (Escherichia coli); 32.1 ± 3.7 µM (≈ 17 µg/mL) in [7] (setting [9]).
Regarding `Cl.Nc1nc(-c2ccc(Br)cc2)c(SS[C@@H]2O[C@H](CO)[C@@H](O)[C@H](O)[C@H]2O)s1` [Compound 5c, 5-[(β-D-glucopyranosyl)disulfanyl]-2-amino-4-(4-bromophenyl)thiazole hydrochloride], the EC50 (in [1]; in the data set with HeLa (cervical cancer); in data set [4]) was greater than 25 µM throughout. Besides, the “Inhibition of Biofilm Formation MIC50, C. albicans” value in data set [2] is 8.69 µM. Also, the EC50 at 24 h in data set [3] is greater than 25 µM. Also, in the data set with Human erythrocytes, the “Hemolytic activity, erythrocytes” value was greater than 25 µM. Besides, the MIC50 in data set [5] (Candida albicans, KMM455) was 1.6 ± 0.2 µM; in data set [6] (Escherichia coli), 5 ± 0.5 µM; in data set [7] (setting [9]) it was 3 ± 0.2 µM.
As for `Nc1nc(-c2ccc(Cl)cc2)c(SS[C@@H]2O[C@H](CO)[C@@H](O)[C@H](O)[C@H]2O)s1` [Compound 5d, 5-[(β-D-glucopyranosyl)disulfanyl]-2-amino-4-(4-clorophenyl)thiazole hydrochloride], the EC50 (in data set [1]; with HeLa (cervical cancer); in data set [4]) was greater than 25 µM throughout. The “Inhibition of Biofilm Formation MIC50, E. coli” value (“Inhibition … E. coli” below) in data set [8] is on record as 6.00 µM. Also, the EC50 at 24 h in [3] was greater than 25 µM. In addition, the “Hemolytic activity, erythrocytes” value in the data set on Human erythrocytes was greater than 25 µM. Further, the MIC50 in data set [5] (Candida albicans, KMM455) came to 3.1 ± 2.3 µM; in data set [6] (Escherichia coli) it was 6.6 ± 0.5 µM; in [7] (setting [9]), 2.5 ± 0.2 µM.
Take `Cl.Nc1nc(-c2ccc(Br)cc2)c(SS[C@@H]2OC[C@@H](O)[C@H](O)[C@H]2O)s1` [Compound 5h, 5-[(β-D-xylopyranosyl)disulfanyl]-2-amino-4-(4-bromophenyl)thiazole hydrochloride]: the EC50 (in data set [1]; in the data set with HeLa (cervical cancer); in data set [4]) was greater than 25 µM throughout. Moreover, the “Inhibition of Biofilm Formation MIC50, C. albicans” value in data set [2] turned out to be 3.21 µM. In addition, the “Inhibition … E. coli” value in data set [8] came to 8.92 µM. Further, the EC50 at 24 h in [3] stood at 23.5 µM. The “Hemolytic activity, erythrocytes” value with Human erythrocytes is greater than 25 µM. For the same compound, the MIC50 in data set [5] came to 1.56 µM; in [5] (Candida albicans, KMM455), 1.6 ± 0.1 µM; in [6], 3.08 µM; in data set [6] (Escherichia coli) it was 3.1 ± 0.3 µM; in data set [7], 1.15 µM; in data set [7] (setting [9]) it was 1.2 ± 0.1 µM.
Consider `Cc1ccc(-c2nc(N)sc2SS[C@@H]2OC[C@@H](O)[C@H](O)[C@H]2O)cc1.Cl` [Compound 5j, 5-[(β-D-xylopyranosyl)disulfanyl]-2-amino-4-(p-tolyl)thiazole hydrochloride], for which the EC50 (in data set [1]; in the data set with HeLa (cervical cancer); in [4]) was greater than 25 µM in each case. Also, the “Inhibition … E. coli” value in [8] turned out to be 5.62 µM. Also, the EC50 at 24 h in [3] was greater than 25 µM. Further, the MIC50 in [5] (Candida albicans, KMM455) came to 15.9 ± 1.1 µM; in [6] (Escherichia coli), 38 ± 3 µM; in [7] (setting [9]), 34.5 ± 3 µM.
As for `O=[N+]([O-])c1ccc(O)c(Cl)c1` [Nitrofungin, reference compound], the “Inhibition of Biofilm Formation MIC50, C. albicans” value in data set [2] worked out at 4.3 ± 0.4 µM. For the same compound, the “Inhibition of Microbial Growth MIC50, C. albicans” value in [5] amounted to 4.1 ± 0.5 µM.

As a reminder, the EC50 is the concentration needed to bring the measured effect to its halfway point. A word on the MIC50: it is an inhibitory concentration at the 50% level, which refers to growth in some studies and to a panel of isolates in others. One may read the inhibition as the relative decrease from the control value, in per cent.

(Values after article PMC11943723, “Synthesis and Biological Activity of Glycosyl Thiazolyl Disulfides Based on Thiacarpine, an Analogue of the Cytotoxic Alkaloid Polycarpine from the Ascidian Polycarpa aurata” (Marine Drugs, 2025).)
